Source: patent publication US10786481B2, “Hydroquinone compounds, preparation methods therefor, and use in anti-tumor or immunomodulation therapy” (Biomedical Analysis Center, Academy of Military Medical …, priority 2016, dated 2020)

How the values were obtained:
[1] = system: immortalized mice bone marrowmacrophages (IBMM); test: Cytotoxicity, MTS method, IBMM cell; format: cell-based; conditions: Mus musculus, Bone marrow macrophage, MTS method; read-out: IC50(mM) IBMM cell
Source text: (§1) The toxicity of compounds is detected with MTS method in the immortalized mice bone marrowmacrophages (IBMM), mice embryonic fibroblast (NIH3t3) and humanized embryonic nephrocyte.

[2] = system: mice embryonic fibroblast (NIH3t3); test: Cytotoxicity, MTS method, NIH3T3 cell; format: cell-based; conditions: Mus musculus, NIH3T3, MTS method; read-out: IC50(mM) NIH3T3 cell
Source text: as §1

[3] = system: humanized embryonic nephrocyte (HEK293 cell); test: Cytotoxicity, MTS method, HEK293 cell; format: cell-based; conditions: Homo sapiens, HEK293, MTS method; read-out: IC50(mM) HEK293 cell
Source text: as §1

[4] = Release experiment of target compound in human plasma; conditions: 37° C., 5 min to 9 h
Method: Mobile phase: gradient elution; A: water; B: methanol;
Chromatographic column: CAPCEL PAK MF PH-1;
Detecting instrument: TQ-S; ion source: APCI; ion detection mode: MRM;
Dissolving the target compound with DMSO, then diluting to 5 μg/mL with the normal saline of 0.9%. The human blank plasma after subpackage is preserved at −70° C., unfreezing in a refrigerator at 4° C. when used. Take 20 μL of the blank plasma, adding 20 μL of the target compound solution as above formulated, vortexing for 15 s, and left it in the water bath at 37° C. […] Take the supernatant and inject 10 μL for detection.

With `COc1ccc(OC(=O)c2ccccc2)c(C(C)(C)C)c1` [XH2005, 2-tert-butyl-4-methoxyphenol benzoate] the IC50 [1] was 0.439 mM, the IC50 [2] was 0.0875 mM and the IC50 [3] was 0.082 mM. The “release of BHA in human plasma” value [4] was “releases BHA”.

With `COc1ccc(OC(=O)C2=CCCCC2)c(C(C)(C)C)c1` [XH2015, 2-tert-butyl-4-methoxyphenol cyclohexenecarboxylate] the IC50 [1] was 0.147 mM, the IC50 [2] was 0.194 mM and the IC50 [3] was 0.109 mM. For the same compound, the “release of BHA in human plasma” value [4] was “releases BHA”.

For `CCC(=O)Oc1ccc(OC)cc1C(C)(C)C` [XH2016, 2-tert-butyl-4-methoxyphenol propionate], the IC50 [1] was 0.148 mM, the IC50 [2] was 0.0186 mM and the IC50 [3] was 0.065 mM.

`C=CC(=O)Oc1ccc(OC)cc1C(C)(C)C` [XH2017, 2-tert-butyl-4-methoxyphenol acrylate] gave an IC50 [1] of 0.56 mM, an IC50 [2] of 0.0229 mM and an IC50 [3] of 0.008 mM.

In the case of `COc1ccc(OC(=O)Cc2ccc(OC)c(OC)c2)c(C(C)(C)C)c1` [XH2018, (2-tert-butyl-4-methoxyphenol) 3,4-dimethoxyphenylacetate], the IC50 [1] is reported as 0.13 mM, the IC50 [2] is reported as 0.333 mM and the IC50 [3] is reported as 0.386 mM. For the same compound, the “release of BHA in human plasma” value [4] was “releases BHA”.

`CC#CC(=O)Oc1ccc(OC)cc1C(C)(C)C` [XH2019, 2-tert-butyl-4-methoxyphenol butynoate] gave an IC50 [1] of 0.024 mM, an IC50 [2] of 0.0476 mM and an IC50 [3] of 0.037 mM. For the same compound, the “release of BHA in human plasma” value [4] was “releases BHA”.

With `COc1ccc(OC(=O)c2ccccc2-c2ccccc2C(=O)Oc2ccc(OC)cc2C(C)(C)C)c(C(C)(C)C)c1` [XH2020, bis(2-tert-butyl-4-methoxyphenol)2,2′-biphenyldicarboxylate] the “release of BHA in human plasma” value [4] was “releases BHA”.

For `COc1ccc(OC(=O)Cc2cccc(F)c2)c(C(C)(C)C)c1` [XH2022, (2-tert-butyl-4-methoxyphenol) 3-fluorophenylacetate], the “release of BHA in human plasma” value [4] was “releases BHA”.

`COc1ccc(OC(=O)Cc2c[nH]c3ccccc23)c(C(C)(C)C)c1` [XH2023, (2-tert-butyl-4-methoxyphenol) (1H-indole-3-yl)acetate] gave an IC50 [1] of 0.0065 mM, an IC50 [2] of 0.065 mM and an IC50 [3] of 0.03 mM. For the same compound, the “release of BHA in human plasma” value [4] was “releases BHA”.

In the case of `COc1ccc(OC(=O)CCc2ccc(F)cc2)c(C(C)(C)C)c1` [XH2024, (2-tert-butyl-4-methoxyphenol) 3-(4-fluorophenyl)-propionate], the “release of BHA in human plasma” value [4] is reported as “releases BHA”.

With `COc1ccc(OC(=O)C2CCCN(C(=O)OC(C)(C)C)C2)c(C(C)(C)C)c1` (centres unmarked) [XH2025, (2-tert-butyl-4-methoxyphenol) N-tert-butoxycarbonylpiperidine-3-formate] the “release of BHA in human plasma” value [4] was “releases BHA”.

For `COc1ccc(OC(=O)CCc2cccc([N+](=O)[O-])c2)c(C(C)(C)C)c1` [XH2028, (2-tert-butyl-4-methoxyphenol) 3-(3-nitrophenyl)propionate], the “release of BHA in human plasma” value [4] was “releases BHA”.

With `COc1ccc(OC(=O)c2ccc(-c3ccccc3)cc2)c(C(C)(C)C)c1` [XH2029, (2-tert-butyl-4-methoxyphenol) 4-phenylbenzoate] the “release of BHA in human plasma” value [4] was “releases BHA”.

With `COc1ccc(OC(=O)c2cnccc2C)c(C(C)(C)C)c1` [XH2030, (2-tert-butyl-4-methoxyphenol) 4-methylpyridine-3-formate] the “release of BHA in human plasma” value [4] was “releases BHA”.

In the case of `COc1ccc(OC(=O)c2cnccc2OC)c(C(C)(C)C)c1` [XH2031, (2-tert-butyl-4-methoxyphenol) 4-methoxypyridine-3-formate], the “release of BHA in human plasma” value [4] is reported as “releases BHA”.

In the case of `CCCCCCCCCCCCCCCC(=O)Oc1ccc(OC)cc1C(C)(C)C` [XH2033, 2-tert-butyl-4-methoxyphenol hexadecylate], the “release of BHA in human plasma” value [4] is reported as “releases BHA”.

In the case of `COc1ccc(OC(=O)CNC(=O)OC(C)(C)C)c(C(C)(C)C)c1` [XH2034, N-tert-butoxycarbonylglycine(2-tert-butyl-4-methoxyphenol)ester], the “release of BHA in human plasma” value [4] is reported as “releases BHA”.

With `COc1ccc(OC(=O)c2ccc(Cl)c(F)c2)c(C(C)(C)C)c1` [XH2035, (2-tert-butyl-4-methoxyphenol) 3-fluoro-4-chlorobenzoate] the “release of BHA in human plasma” value [4] was “releases BHA”.

With `COc1ccc(OC(=O)c2cccc(C#N)c2)c(C(C)(C)C)c1` [XH2036-2, (2-tert-butyl-4-methoxyphenol) 3-cyanobenzoate] the “release of BHA in human plasma” value [4] was “releases BHA”.

With `COc1ccc(OC(=O)c2ccc3ccccc3c2)c(C(C)(C)C)c1` [XH2036-4, (2-tert-butyl-4-methoxyphenol) 2-naphthoate] the IC50 [1] was 0.23 mM, the IC50 [2] was 0.232 mM and the IC50 [3] was 0.253 mM. For the same compound, the “release of BHA in human plasma” value [4] was “releases BHA”.

In the case of `COc1ccc(OC(=O)c2cc(Cl)nnc2Cl)c(C(C)(C)C)c1` [XH2038-1, (2-tert-butyl-4-methoxyphenol) 3,6-dichloropyridazine-4-formate], the IC50 [1] is reported as 0.222 mM, the IC50 [2] is reported as 0.236 mM and the IC50 [3] is reported as 0.33 mM.

Work on `COc1ccc(OC(=O)c2cc3ccccc3[nH]2)c(C(C)(C)C)c1` [XH2038-3, (2-tert-butyl-4-methoxyphenol) 2-indoleformate] yielded an IC50 [1] of 0.263 mM, an IC50 [2] of 0.517 mM and an IC50 [3] of 0.205 mM. For the same compound, the “release of BHA in human plasma” value [4] was “releases BHA”.

In the case of `COc1ccc(OC(=O)c2cccnc2Cl)c(C(C)(C)C)c1` [XH2038-4, (2-tert-butyl-4-methoxyphenol) 2-chloro-3-picolinate], the “release of BHA in human plasma” value [4] is reported as “releases BHA”.

Work on `COc1ccc(OC(=O)Cc2cccs2)c(C(C)(C)C)c1` [XH2038-5, (2-tert-butyl-4-methoxyphenol) 2-thiopheneacetate] yielded an IC50 [1] of 0.202 mM, an IC50 [2] of 0.146 mM and an IC50 [3] of 0.266 mM. For the same compound, the “release of BHA in human plasma” value [4] was “releases BHA”.

For `COc1ccc(OC(=O)CCc2ccc(C)cc2)c(C(C)(C)C)c1` [XH2039-1, (2-tert-butyl-4-methoxyphenol) 3-(4-methylphenyl)-propionate], the “release of BHA in human plasma” value [4] was “releases BHA”.

Work on `C#CC(=O)Oc1ccc(OC)cc1C(C)(C)C` [XH2039-2, (2-tert-butyl-4-methoxyphenol) propiolate] yielded an IC50 [1] of 0.159 mM, an IC50 [2] of 0.248 mM and an IC50 [3] of 0.125 mM. The “release of BHA in human plasma” value [4] was “releases BHA”.

With `COc1ccc(OC(=O)C(C)c2ccccc2)c(C(C)(C)C)c1` (centres unmarked) [XH2039-3, (2-tert-butyl-4-methoxyphenol) 2-phenyl propionate] the “release of BHA in human plasma” value [4] was “releases BHA”.

In the case of `COc1ccc(OC(=O)C(C)F)c(C(C)(C)C)c1` (centres unmarked) [XH2039-4, (2-tert-butyl-4-methoxyphenol) 2-fluoropropionate], the “release of BHA in human plasma” value [4] is reported as “releases BHA”.

In the case of `COc1ccc(OC(=O)CC2CCCCC2)c(C(C)(C)C)c1` [XH2039-5, (2-tert-butyl-4-methoxyphenol) cyclohexylacetate], the IC50 [1] is reported as 0.067 mM, the IC50 [2] is reported as 0.106 mM and the IC50 [3] is reported as 0.087 mM. For the same compound, the “release of BHA in human plasma” value [4] was “releases BHA”.

For `COc1ccc(OC(=O)CC23CC4CC(CC(C4)C2)C3)c(C(C)(C)C)c1` [XH2040-1, (2-tert-butyl-4-methoxyphenol) adamantaneacetate], the “release of BHA in human plasma” value [4] was “releases BHA”.

With `COc1ccc(OC(=O)CCCCCC(C)=O)c(C(C)(C)C)c1` [XH2040-5, (2-tert-butyl-4-methoxyphenol) 7-oxooctanoate] the “release of BHA in human plasma” value [4] was “releases BHA”.

In the case of `COc1ccc(OC(=O)c2cc(I)ccc2Br)c(C(C)(C)C)c1` [XH2041-3, (2-tert-butyl-4-methoxyphenol) 2-bromo-5-iodo benzoate], the “release of BHA in human plasma” value [4] is reported as “releases BHA”.

With `COc1ccc(OC(=O)c2ccc([N+](=O)[O-])cc2F)c(C(C)(C)C)c1` [XH2041-4, (2-tert-butyl-4-methoxyphenol) 2-fluoro-4-nitryl benzoate] the “release of BHA in human plasma” value [4] was “releases BHA”.

With `COc1ccc(OC(=O)C2CCCN(C(=O)OC(C)(C)C)C2)c(C(C)(C)C)c1` (centres unmarked) [XH2041-5, (2-tert-butyl-4-methoxyphenol) N-tert-butoxycarbonylpiperidine-3-formate] the “release of BHA in human plasma” value [4] was “releases BHA”.

In the case of `COc1ccc(OC(=O)CCCC(=O)c2ccccc2)c(C(C)(C)C)c1` [XH2043-1, (2-tert-butyl-4-methoxyphenol) 4-benzoyl butyrate], the “release of BHA in human plasma” value [4] is reported as “releases BHA”.

In the case of `COc1cc(C=CC(=O)Oc2ccc(OC)cc2C(C)(C)C)cc(OC)c1` [XH2043-2, (2-tert-butyl-4-methoxyphenol) 3,5-dimethoxy phenylacrylate], the “release of BHA in human plasma” value [4] is reported as “releases BHA”.

In the case of `COc1ccc(OC(=O)c2cc(Cl)ccn2)c(C(C)(C)C)c1` [XH2043-3, (2-tert-butyl-4-methoxyphenol) 4-chloropyridine-2-formate], the “release of BHA in human plasma” value [4] is reported as “releases BHA”.

In the case of `COc1ccc(OC(=O)C2CCCN(C)C2)c(C(C)(C)C)c1` (centres unmarked) [XH2043-4, (2-tert-butyl-4-methoxyphenol) N-methylpiperidine-3-formate], the “release of BHA in human plasma” value [4] is reported as “releases BHA”.

For `COc1ccc(OC(=O)CCc2cc(C(C)(C)C)c(O)c(C(C)(C)C)c2)c(C(C)(C)C)c1` [XH2045-2, (2-tert-butyl-4-methoxyphenol) 3-(3,5-di-tert-butyl-4-hydroxy-phenyl)propionate], the “release of BHA in human plasma” value [4] was “releases BHA”.

For “(2-tert-butyl-4-methoxyphenol) 1-methylcyclopropyl formate [XH2038-2]”, the “release of BHA in human plasma” value [4] was “releases BHA”.

For “di(2-tert-butyl-4-methoxyphenol) adipate [XH2046-3]”, the “release of BHA in human plasma” value [4] was “releases BHA”.

With “di(2-tert-butyl-4-methoxyphenol) malonate [XH2037]” the “release of BHA in human plasma” value [4] was “releases BHA”.

In the case of “di(2-tert-butyl-4-methoxyphenol) p-phenylenediacetate [XH2042]”, the “release of BHA in human plasma” value [4] is reported as “releases BHA”.

For “di(2-tert-butyl-4-methoxyphenol) terephthalate [XH2026]”, the “release of BHA in human plasma” value [4] was “releases BHA”.
